Experimental data taken from PMC11729428, “New Potent Inhibitor of Transforming Growth Factor-Beta (TGFβ) Signaling that is Efficacious against Microsatellite Stable Colorectal Cancer Metastasis in Combination with Immune Checkpoint Therapy in Mice” (ACS Pharmacology & Translational Science, 2024).
Like-named read-outs stand apart in the source and are kept apart here.

Tests used:
[1] = Metabolic stability in human cryopreserved hepatocytes; format: in vitro ADME
Method: (§1) Metabolic stability in human primary hepatocytes
This assay was performed at Sai Life Sciences Lt. (Telangana, India) with human suspension hepatocytes […]
(§2) All other reactions were initiated by […]
analysis by LC-MS/MS, using MRM mode. […]
related to phase I and phase II metabolism, respectively.
The PARs were used for calculation of metabolic stability. The 0 min area ratio was considered as 100%. The […]
incubation volume / number of cells (in millions) x K e. To calculate into full body context, the values of 120 […]

[2] = Buffer stability (hepatocyte assay control); format: physicochemical
Method: Similarly, buffer was added to recovery and stability samples. Next,
Samples were monitored for
parent compound using multiple reaction monitoring (MRM) mode. […]
as §1
This assay was performed at Sai Life Sciences Lt. (Telangana, India) with human suspension hepatocytes
as §2

[3] = system: mouse tumor organoids (MTOs), established CRC liver metastases; assay: Treatment of established CRC liver metastases, alone or with anti-PD1; format: in vivo, mice; conditions: for Cure of established liver metastases as monotherapy: 0.1× doses: 80, 82 and 71 mg/kg BID for galunisertib, vactosertib and HYL001, anti-PD1 IP alone
Method: Encouraged by the increased potency observed in vitro and in the inhibition of liver metastatic initiation in vivo, we evaluated the ability of a relatively low HYL001 dose to help overcome established liver metastases when combined with immune checkpoint inhibition. In this experimental set up, a low number of MTO cells (25K) was injected in the portal vein (leaving the spleen unaltered), and liver metastases were allowed to develop and grow for 15 days before treatment with TGFβ inhibitors was initiated. This was done in combination with 3–4 intraperitoneal (IP) injections of immune-checkpoint inhibition therapy (anti-PD1 or isotype control antibody), spaced 2–3 days (Figure 6A,B).
Figure 6 HYL001 efficacy in dual immunotherapy against established CRC liver metastases. (A) Overview of experimental timing: dual treatment between days 14 and 28 after MTO injection (TGFβ inhibitor doses were all 0.1 ×); follow-up until humane end point. Below: numbers of countable liver lesions after sacrifice. Statistical comparisons to the vehicle + IgG2a control (above) or the vehicle+αPD1 condition (below) by two-tailed Mann–Whitney U test; ns: P ≥ 0.05; *P < 0.05; **P < 0.01; ***P < 0.001; ****P < 0.0001. (B) Kaplan–Meier curves indicate the survival (until humane end point) of mice under each treatment; P values were computed by the Mantel–Cox test (Log-rank).
For all tumor cell injections, C57BL/6J (or athymic BALB/C nu/nu) mice were purchased from Janvier at 6 weeks of age and injected at 7–8 weeks. Sex was matched with the origin of the tumor organoids, i.e., males for this study. Intrasplenic or portal vein injections, respectively, with 31G needles on 1 mL insulin syringes or 33G needles on a 50/100 μL Hamilton syringe, were used for liver colonization by the introduction of dissociated organoids (single cells) into the portal circulation. MTOs were cultured in standard six-well plates for 4 days and trypsinized as described before.[5] The resulting single cell suspension in HBSS (Lonza) was filtered through 100 and 40 μm mesh (to remove clumps of cells and aggregated debris). Intrasplenic injections were performed, as previously described,[5],[8],[9] using 2 × 10^5 cells in 70 μL HBSS. For portal vein injections, […] in 25 μL HBSS were injected directly into the portal vein.[5] Mice were euthanized at 3–5 weeks or at the humane end point (advanced metastasis-associated morbidity causing or threatening to cause severe suffering) to obtain survival-type data. Visible liver metastases were counted, and data were analyzed using GraphPad Prism software (v.7.03).
Gavage treatments were performed by technicians from the animal facility, not involved in this study (blinded). For checkpoint immunotherapy or dual treatments, we used rat anti-PD-1 (RMP1–14; Leinco P372) or rat IgG2a (Leinco I-1177) isotype-control antibodies.

[4] = system: panel of 97 wild-type and disease-relevant mutant kinases; format: binding; conditions: for Additional kinases showing >85% competitive binding: besides ALK5 and ALK4/ACVR1B
From the text: We also assessed the selectivity of these three inhibitors toward a panel of 97 wild-type and disease-relevant mutant kinases, distributed throughout various kinase families.
Figure 2 Selectivity of HYL001. […] TK: tyrosine kinases; TKL: tyrosine kinase-like kinases; STE: serine/threonine kinases; CK1: casein kinase 1 family; AGC: serine/threonine kinases, regulated by secondary messengers such as cyclic AMP (PKA) or lipids (PKC); CAMK: Ca^2+/calmodulin-dependent protein kinase family; and CMGC: primarily proline-directed serine/threonine kinases (CDKs, GSKs, MAP kinases, and CDK-like kinases).
5. Methods for In vitro characterizations of HYL001
Kinase affinity and selectivity
The affinity of the ALK5 inhibitor HYL001 was determined for the ALK kinase family using the […]
DNA-tagged kinases and immobilized assay ligands, using quantitative PCR —run by Eurofins/DiscoveryX (Birmingham AL, USA). Dissociation constants were calculated by measuring the amount of kinase captured on the solid support as a function of the test compound concentration. Kd values were obtained by an 11 -point […]
(BMPR1A), ALK4 (ACVR1B), ALK6 (BMPR1B), ACVR2B and TGFβ R2. In addition, this technology was […]
The strength of competitive binding, defined as the percentage of binding inhibition of kinases to assay ligan d, was visualized using the TREEspot software (DiscoverRx Corporation) and a selectivity score was calculated (the fraction of non -mutated kinases tested with competitive binding inhibition above threshold percentages 65 […]

TGFβ pathway = assay: Cellular TGFβ reporter (12xCAGA luciferase) assay in HEK293T cells; format: cell-based; conditions: for IC50: Homo sapiens, HEK-293T, 5 ng/mL recombinant TGFβ, 12xCAGA luciferase reporter, read-out: cellular inhibition TGFβ pathway IC50
Method: We next tested the three inhibitors in a cellular assay, using a luciferase-based reporter assay[20] in HEK293T cells in the presence or absence of inhibitors (Table 1). Upon activation of the endogenous receptors by 5 ng/mL recombinant TGFβ, phosphorylation of the TGFBR1 triggers phosphorylation of the intracellular mediators SMAD2/3, and subsequent nuclear translocation with SMAD4. The SMAD2/3-SMAD4 complex binds to the TGFβ response element (12xCAGA) allowing the transcription of the Firefly luciferase reporter.
HEK293T cells were purchased from the ATCC and cultured in DMEM supplemented with L-glutamine and 10% fetal bovine serum (Life Technologies) at 37 °C and 5% CO2. The cells were seeded in 24-well plates and transfected with plasmids encoding 12xCAGA-Firefly_Luc and Tk-Renilla_Luc (75 and 10 ng per well, respectively) using polyethylenimine (Polysciences) as the transfection reagent. After 7 h, the medium was replaced with starvation medium (DMEM + 0.05% FBS). […] Bioluminescence was measured in a Berthold Lumat LB6507 luminometer (18 μL of reagents, 10 s measurements). Results were normalized to those of the Renilla transfection control. Inhibition–concentration curves were analyzed in Prism Graphpad Prism (v10.1.1) with a least-squares regression nonlinear fit.

[5] = 10 μM compound, 90 kinases tested
[6] = human, hepatocytes, 0 h, pH 7.4
[7] = human, hepatocytes, 5 min, pH 7.4
[8] = human, hepatocytes, 0.25 h, pH 7.4
[9] = human, hepatocytes, 0.5 h, pH 7.4
[10] = human, hepatocytes, pH 7.4, Disappearance T1/2

Structure (SMILES) | Cure of established liver metastases as monotherapy [3] | Number of kinase interactions (>65% competitive binding inhibition) [4, 5] | Additional kinases showing >85% competitive binding [4] | IC50 (TGFβ pathway) [nM] | Parent compound remaining [1, 6] [%] | Parent compound remaining [1, 7] [%] | Parent compound remaining [1, 8] [%] | Parent compound remaining [1, 9] [%] | CLint scaled ([1]; human, hepatocytes, pH 7.4) [mL/min/kg] | half-life [1, 10] [min] | Buffer Stability ([2]; 0 min, pH 7.4) [%] | Buffer Stability ([2]; 60 min, pH 7.4) [%] | further results
Cc1cccc(-c2[nH]c(CNc3ccccc3F)nc2-c2ccc3ncnn3c2)n1 [vactosertib, N -((4-([1,2,4]Triazolo[1,5-a]Pyridin-6-Yl)-5-(6-Methylpyridin-2-Yl)-1 H -Imidazole-2-Yl)Methyl)-2-Fluoroaniline] | not efficacious | 24 | ERBB2, FGFR2/3, KIT, MEK1/2, PDGFRA/B, SRC, and VEGFR2 | 10 |  |  |  |  |  |  |  |  | CLint scaled ([1]; hepatocytes (suspension, cryopreserved), pH 7.4, scaled using 120 M cells per g liver, liver weight 20 g/kg (human), read-out: Scaled in vivo Clint): 30.1 mL/min/kg; Parent compound remaining ([1]; human hepatocytes, incubation time 0 min): 100%; Parent compound remaining ([1]; human hepatocytes, incubation time 5 min): 60%; Parent compound remaining ([1]; human hepatocytes, incubation time 15 min): 59%; Parent compound remaining ([1]; human hepatocytes, incubation time 30 min): 52%; Parent compound remaining ([1]; human hepatocytes, incubation time 60 min): < 50%; Parent compound remaining ([1]; human hepatocytes, incubation time 60 min, listed as Vactosertib): 39%; half-life ([1]; human, hepatocytes (suspension, cryopreserved), pH 7.4, human hepatocytes, read-out: Disappearance T1/2): 55.3 min; Buffer Stability ([2]; 0 min): 100%; Buffer Stability ([2]; 60 min): 84%
Cc1cccc(-c2nn3c(c2-c2ccnc4ccc(O)cc24)CCC3)n1 [HYL001, 4-(2-(6-Methylpyridin-2-yl)-5,6-dihydro-4H-pyrrolo[1,2-b]pyrazol-3-yl)quinolin-6-ol] | not efficacious | 13 | ABL-1, CSNK1G2, and p38α | 72 | 100 | 67 | 59 | 56 | 32.1 | 51.8 | 100 | 117 | Tumor burden in numbers of liver nodules ([3]; dual therapy with anti-PD1): marked overall reduction; Mice cured at the end point (number) ([3]; dual therapy with anti-PD1, 71 mg/kg BID): 8/10; Mice cured at the end point ([3]; dual therapy with anti-PD1, 71 mg/kg BID, surviving 2.5 months after injection): up to 80%; Number of kinase interactions (>65% competitive binding inhibition) ([4]; 0.3 μM compound, 22 kinases tested): 1; Number of kinase interactions (>65% competitive binding inhibition) ([4]; 3 μM compound, 22 kinases tested): 5; Selectivity score S(>65_10), fraction of wildtype kinases inhibited >65% ([4]; 10 μM compound): 0.144; Selectivity score S(>90_10), fraction of wildtype kinases inhibited >90% ([4]; 10 μM compound): 0.1; Selectivity score S(>65_10), fraction of wildtype kinases inhibited >65% ([4]; 10 μM compound, listed as HYL): 0.14; Fold higher potency compared to galunisertib in TGFβ reporter assay (TGFβ pathway): ~2 fold
Cc1cccc(-c2nn3c(c2-c2ccnc4ccc(C(N)=O)cc24)CCC3)n1 [galunisertib] | not efficacious | 10 |  | 157 | 100 | 97 | 92 | 90 | 10.4 | > 60 | 100 | 105 | Parent compound remaining ([1]; human, hepatocytes, 1 h, pH 7.4): 76%; half-life ([1]; human, hepatocytes, pH 7.4, Assumed T1/2): 160 min
